{
  "source": "paper PMC8212695",
  "about": "“Discovery of a Highly Conserved Peptide in the Iron Transporter Melanotransferrin that Traverses an Intact Blood Brain Barrier and Localizes in Neural Cells” (Frontiers in Neuroscience, 2021)",
  "key": {"[1]": {"tested_on": "in vitro BBB model: primary bovine brain capillary endothelial cells supported by primary rat glial cells"}, "[2]": {"tested_on": "in vitro BBB model: primary bovine brain capillary endothelial cells supported by primary rat glial cells", "test": "In vitro BBB model transcytosis of trypsin-digested sMTf, peptides identified by mass spectrometry", "details": "for Ablum 120:Area: MS peak area in abluminal compartment at 120 min; for Ablum 120:Area / Lum 120:Area: trypsin-digested sMTf 0.25 mg/mL luminal, Ringer-HEPES, 37°C, 2 h, LC-MS, one peptide may have several lines; for Lum 120:Area: MS peak area in luminal compartment at 120 min; for presence of MTf fragments on the abluminal side: after 2 h, SDS-PAGE and/or mass spectrometry"}, "[3]": {"tested_on": "in vitro BBB model: primary bovine brain capillary endothelial cells supported by primary rat glial cells", "remark": "listed apart in the source"}, "[4]": {"details": "stable isotopic LC-MS; ref Singh et al., 2020; cited from earlier work", "source_text": "In the context of the present study, the variability in conformation, glycosylation, anchoring and metal binding, presents potential complications to the use of sMTf as a robust, reproducible, clinically useful drug delivery vehicle. Therefore, to improve upon the utility of sMTf as a drug-delivery vector, we fragmented the protein in order to identify the minimally active region that retains the capability of carrying molecular cargo across the BBB. We report the identification of a 12 amino acid peptide (MTfp; […]), derived from melanotransferrin protein, that retains the ability cr ..."}, "[5]": {"test": "In vivo BBB penetration of Cy5-tagged peptides, 3D deconvolution fluorescence microscopy", "details": "mice, IV, Cy5 conjugates"}, "[6]": {"tested_on": "neurons, astrocytes, microglia, lysosomes, endosomes in the brain", "test": "Cellular and subcellular localization of MTfp in mouse brain, 3D confocal microscopy", "assay_type": "in vivo", "details": "mice injected IV with Cy5-MTfp", "procedure": "Three sets of 3D fluorescence microscopy experiments were performed. The first set measured the BBB penetration of Cy5 tagged MTfp using DeltaVision Elite integrated with Huygens Deconvolution Software (GE, United States). As an extension of this, a set of sections were prepared to assess the cellular localization of the Cy-5 tagged MTfp in the CNS. The second set of experiments addressed the localization of Cy-5 tagged MTfp in various cell types and subcellular objects using the Leica SP8 X system (Leica, Germany).\nThe brains were removed and fixed with 4% paraformaldehyde overnight and then transferred into PBS+0.01% sodium azide and stored at 4°C. The brains were embedded in 4% agarose, fixed onto the microtome stage and sectioned (20 μm) at 4°C. The sections were stained with DAPI and then mounted on microscopic slides. Glass coverslips were mounted on the sections using Prolong Gold antifade reagent. In another experiment, to assess the localization of the peptide in the CNS, brains from mice injected with either PBS or Cy5-MTfp followed by FITC- tomato lectin. The brains were collected and processed as stated above. These were then incubated with antibodies targeted against neurons (NeuN; ab177487), microglia (TMEM; ab209064), astrocytes (GFAP; ab7260), lysosomes (LAMP-1; sc-19992-AF546) and endosomes (EEA-1; sc-137130), secondary antibody staining was done for unconjugated primary antibodies with Alexa fluor 680 goat anti-mouse IgG (cat# A21058), Alexa fluor 680 goat anti-rabbit IgG (Cat #A21076) and then counter-stained with DAPI, cover slipped, imaged and quantitatively analyzed to determine the extent of localization of various cell types and subcellular objects with MTfp.\nThe microscopy experiments, which quantitatively assessed the cellular location of MTfp within the brain, were performed using Leica SP8 X system (Leica, Germany). 3D confocal images were acquired with a Leica AOBS SP8 laser scanning confocal microscope (Leica, Heidelberg, Germany) using a high-resolution Leica 63X/1.4 or 40X/1.3 Plan-Apochromat oil immersion objective lens. Excitations were performed using either diode or tunable white light laser sources. All images and spectral data (except DAPI) were generated using the highly sensitive HyD detectors (with gated option) in de-scanned mode. The backscattered emission signals from the sample were delivered through the tunable filter (AOBS), the detection pinhole, spectral dispersion prism, and finally to the PMT/HyD detectors. For 3D image data set acquisition, the excitation beam was first focused at the maximum signal intensity focal position within the brain tissue sample and the appropriate HyD gain levels were then selected to obtain the pixel intensities within range of 0–255 (8-bit images) using a color gradient function. The beginning and end of the 3D stack were set based on the signal level degradation. Series of 2D images for a selected 3D stack volume were then acquired with 1,024 × 1,024 pixels. […]\nFor each tissue volume reported here, z-section images were compiled and finally the 3D image restoration was performed using VOLOCITY software (Perkin Elmar, United Kingdom). The volume estimation was performed on the 3D image data sets recorded from four or more cortical area of brain tissue samples. Algorithms were developed to automate the quantification of the test materials and blood capillaries, and to accurately quantify test materials localized in blood capillaries vs. brain parenchyma. […]"}, "[7]": {"details": "mouse, in vivo, iv"}},
  "note": "Where two headings read alike, the source gives them in different places. Where no end group is shown, it is not given here.",
  "data": [
    {"substance": "ADTDGGLIFR", "values": [
      {"measurement": "Abluminal vs. luminal", "setting": "[1]", "result": 2.16, "unit": "%"},
      {"measurement": "Abluminal vs. total", "setting": "[1]", "result": 1.60, "unit": "%"},
      {"measurement": "Ablum 120:Area", "setting": "[2]", "result": "1.59E+10"},
      {"measurement": "Lum 120:Area", "setting": "[2]", "result": "1.11E+10"},
      {"measurement": "presence of MTf fragments on the abluminal side", "setting": "[2]", "result": "identified in the abluminal medium"}
    ]},
    {"substance": "ADTDGGLIFRLLNEGQR", "values": [
      {"measurement": "Ablum 120:Area", "setting": "[3]", "result": "0.00E+00"},
      {"measurement": "Lum 120:Area", "setting": "[3]", "result": "3.69E+07"}
    ]},
    {"substance": "ADVTEWR [ADVTEWR]", "values": [
      {"measurement": "Abluminal vs. luminal", "setting": "[1]", "result": 1.32, "unit": "%"},
      {"measurement": "Abluminal vs. total", "setting": "[1]", "result": 0.82, "unit": "%"},
      {"measurement": "Ablum 120:Area", "setting": "[2]", "result": "1.05E+10"},
      {"measurement": "Lum 120:Area", "setting": "[2]", "result": "9.31E+08"},
      {"measurement": "presence of MTf fragments on the abluminal side", "setting": "[2]", "result": "identified in the abluminal medium"}
    ]},
    {"substance": "AVSDYFGGSCVPGAGETSYSESLCR", "values": [
      {"measurement": "Ablum 120:Area", "setting": "[3]", "result": "5.49E+08"},
      {"measurement": "Lum 120:Area", "setting": "[3]", "result": "5.51E+09"}
    ]},
    {"substance": "DSSHAFTLDELR [MTfp]", "values": [
      {"measurement": "Abluminal vs. luminal", "setting": "[1]", "result": 2.41, "unit": "%"},
      {"measurement": "Abluminal vs. total", "setting": "[1]", "result": 1.90, "unit": "%"},
      {"measurement": "initial rate of entry into the brain", "setting": "[4]", "result": 2.1, "unit": "nM/min"},
      {"measurement": "BBB penetration efficiency compared with RVGp", "setting": "[5]", "result": "statistically similar"},
      {"measurement": "MTfp found in the early endosomes", "setting": "[6]; EEA-1 marker", "result": "approximately 20%"},
      {"measurement": "MTfp found in the lysosomes", "setting": "[6]; LAMP-1 marker", "result": 40, "unit": "%"},
      {"measurement": "astrocytes expressing GFAP co-labeled with MTfp", "setting": "[6]; fluorescence volume fraction", "result": 70, "unit": "%"},
      {"measurement": "microglia expressing TMEM co-labeled with MTfp", "setting": "[6]; fluorescence volume fraction", "result": 80, "unit": "%"},
      {"measurement": "neurons expressing NeuN co-labeled with MTfp", "setting": "[6]; fluorescence volume fraction", "result": 90, "unit": "%"},
      {"measurement": "Ablum 120:Area", "setting": "[2]", "result": "5.87E+09"},
      {"measurement": "Lum 120:Area", "setting": "[2]", "result": "1.03E+10"},
      {"measurement": "presence of MTf fragments on the abluminal side", "setting": "[2]", "result": "identified in the abluminal medium"}
    ]},
    {"substance": "DSSHAFTLDELRGK", "values": [
      {"measurement": "Ablum 120:Area", "setting": "[3]", "result": "1.99E+07"},
      {"measurement": "Lum 120:Area", "setting": "[3]", "result": "0.00E+00"}
    ]},
    {"substance": "DSSHAFTLDELRYC [MTfp-Cy5]", "values": [
      {"measurement": "VT ABVP (Volume of Parenchymal Test Article normalized to Parenchymal Volume), Mean", "setting": "[7]", "result": "1.0 8E-03"},
      {"measurement": "fractional fluorescence in the brain parenchyma compared to mice injected with PBS or revMTfp-Cy5", "setting": "[7]", "result": "Approximately two"}
    ]},
    {"substance": "EHGLKPVVGEVYDQEVGTSYYAVAVVRR", "values": [
      {"measurement": "Ablum 120:Area", "setting": "[3]", "result": "1.70E+07"},
      {"measurement": "Lum 120:Area", "setting": "[3]", "result": "0.00E+00"}
    ]},
    {"substance": "GDSSGEGVCDKSPLER", "values": [
      {"measurement": "Ablum 120:Area", "setting": "[3]", "result": "1.93E+09"},
      {"measurement": "Lum 120:Area", "setting": "[3]", "result": "5.08E+08"}
    ]},
    {"substance": "IQAEQVDAVTLSGEDIYTAGK", "values": [
      {"measurement": "Ablum 120:Area", "setting": "[3]", "result": "0.00E+00"},
      {"measurement": "Lum 120:Area", "setting": "[3]", "result": "3.48E+06"}
    ]},
    {"substance": "LCRGDSSGEGVCDK", "values": [
      {"measurement": "Ablum 120:Area", "setting": "[3]", "result": "2.64E+05"},
      {"measurement": "Lum 120:Area", "setting": "[3]", "result": "2.17E+05"}
    ]},
    {"substance": "NYPSSLCALCVGDEQGR", "values": [
      {"measurement": "Ablum 120:Area", "setting": "[3]", "result": "7.34E+07"},
      {"measurement": "Lum 120:Area", "setting": "[3]", "result": "6.15E+08"}
    ]},
    {"substance": "RLEDLTFAHSSDYC [revMTfp-Cy5, reference compound]", "values": [
      {"measurement": "VT ABVP (Volume of Parenchymal Test Article normalized to Parenchymal Volume), Mean", "setting": "[7]", "result": "6.6 7E-04"}
    ]},
    {"substance": "TVGWNVPVGYLVESGR", "values": [
      {"measurement": "Ablum 120:Area", "setting": "[3]", "result": "0.00E+00"},
      {"measurement": "Lum 120:Area", "setting": "[3]", "result": "9.38E+07"}
    ]},
    {"substance": "VPAHAVVVR", "values": [
      {"measurement": "Abluminal vs. luminal", "setting": "[1]", "result": 2.49, "unit": "%"},
      {"measurement": "Abluminal vs. total", "setting": "[1]", "result": 1.52, "unit": "%"},
      {"measurement": "Ablum 120:Area", "setting": "[2]", "result": "1.24E+08"},
      {"measurement": "Lum 120:Area", "setting": "[2]", "result": "3.48E+07"},
      {"measurement": "presence of MTf fragments on the abluminal side", "setting": "[2]", "result": "identified in the abluminal medium"}
    ]},
    {"substance": "YYDYSGAFR", "values": [
      {"measurement": "Abluminal vs. luminal", "setting": "[1]", "result": 0.13, "unit": "%"},
      {"measurement": "Abluminal vs. total", "setting": "[1]", "result": 0.05, "unit": "%"},
      {"measurement": "Ablum 120:Area", "setting": "[2]", "result": "6.41E+09"},
      {"measurement": "Lum 120:Area", "setting": "[2]", "result": "1.00E+09"},
      {"measurement": "presence of MTf fragments on the abluminal side", "setting": "[2]", "result": "identified in the abluminal medium"}
    ]}
  ]
}
